Laboratory results reported in PubChem BioAssay (NCI).
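Tested at 5 concentrations; 48 h exposure; 96-well plates; endpoints linearly interpolated, else capped at highest concentration. TGI: total growth inhibition.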

Assays:
Test in all cases: inhibition of tumour cell growth, NCI panel, 48 h
[1] = tested on: A498 renal
[2] = tested on: A549 NSCLC
[3] = tested on: BT-549 breast
[4] = tested on: EKVX NSCLC
[5] = tested on: HOP-62 NSCLC
[6] = tested on: IGROV1 ovarian
[7] = tested on: MALME-3M melanoma
[8] = tested on: MDA-MB-435
[9] = tested on: MDA-N
[10] = tested on: MOLT-4 leukemia
[11] = tested on: NCI-H23 lung
[12] = tested on: NCI-H460 lung
[13] = tested on: RXF 393 renal
[14] = tested on: SF-539 CNS
[15] = tested on: SK-MEL-28 melanoma
[16] = tested on: SK-MEL-5 melanoma
[17] = tested on: SK-OV-3 ovarian
[18] = tested on: SR leukemia
[19] = tested on: TK-10 renal
[20] = tested on: UO-31 renal

Structure (SMILES)	TGI [1] [µM]	TGI [2] [µM]	TGI [3] [µM]	TGI [4] [µM]	TGI [5] [µM]	TGI [6] [µM]	TGI [7] [µM]	TGI [8] [µM]	TGI [9] [µM]	TGI [10] [µM]	TGI [11] [µM]	TGI [12] [µM]	TGI [13] [µM]	TGI [14] [µM]	TGI [15] [µM]	TGI [16] [µM]	TGI [17] [µM]	TGI [18] [µM]	TGI [19] [µM]	TGI [20] [µM]
Cc1cccc2c1CC(C1OC(=O)c3c(C)cccc31)C2=O (stereo not given)	> 100	> 100	> 100	> 100	> 100	> 100	> 100	> 100	> 100	> 100	> 100	> 100	> 100	> 100	> 100	> 100	> 100	> 100	> 100	> 100
COc1ccc2c(c1OC)C(Br)CCC(Br)(Br)C2=O (stereo not given)	29.4	29	20.3	29.4	36.7	18.8	22.6	19.3	14.2	8.32	22.8	31	15.1	11.7	29.3	14.7	31.2	4.22	19.4	14
COc1ccc(C[C@H]2NC[C@H](OC(C)=O)[C@H]2OC(C)=O)cc1	4.27	1.08	0.564	0.606	2.75	0.674	0.561	1.23	0.732	1.98	0.94	1.44	0.651	10.4	0.562	0.345	2.56	3.45	> 35.3	0.371
O=C(/C=C/c1ccsc1)c1cccs1	> 100	> 100	48	99.4	> 100	> 100	> 100	> 10	> 100	> 10	68	> 100	42.9	> 100	46.1	36.3	> 100	> 10	> 100	34.3
COc1ccc(/C=C/C(=N/NC(=O)N/N=C(/C=C/c2ccc(OC)cc2)C(C)C)C(C)C)cc1	> 100	> 100	> 100	> 100	> 100	> 100	> 100	> 100	> 100	> 100	> 100	> 100	> 100	> 100	> 100	> 100	> 100	> 100	> 100	> 100
CC1(C)C2CC1C(/C=N\OCC(=O)O)=CC2=O (stereo not given)	> 100	> 100	> 100	> 100	> 100	> 100	> 100	> 100	> 100	> 100	> 100	> 100	> 100	> 100	> 100	> 100	> 100	> 100	> 100	> 100
CCOc1cc(NC(C)=O)ccc1C(=O)NN1C(=O)C(Cl)C1c1ccc(O)c(OC)c1 (stereo not given)	28.4	32.5	21.9	31.5	35.8	28.2	22	29.8	31.9	19	25.4	33.1	29.2	26.8	38.2	22.8	33.6	19.5	11.5	11.1
O=C(c1c(F)c(F)c(F)c(F)c1F)n1c(=O)[nH]c2ccccc21	33.6	32.5	37.5	29.3	31.6	24.2	28.5	21.9	20.5	18.7	11.4	27.2	22	26.7	28.3	28.7	29.7	8.8	18.5	25.2
